Test: xn = mol fraction of the nth substance listed
Conditions: 323.15 K, 100 kPa, Liquid; for electrical conductivity: Alternating current cell with electrodes; for mass density: Vibrating tube method

CCCC[N+]1(C)CCCC1.N#CN=C=[N-] [1-butyl-1-methylpyrrolidinium dicyanamide] + O=C1CCCO1
electrical conductivity [S/m]
Conditions	Frequency=0.005454 MHz	Frequency=0.006 MHz	Frequency=0.00652174 MHz	Frequency=0.00694444 MHz	Frequency=0.0075 MHz	Frequency=0.008 MHz	Frequency=0.00857143 MHz	Frequency=0.00892857 MHz	Frequency=0.00961538 MHz	Frequency=0.01 MHz
x1 = 0.0463	–	2.01	2.01	2.01	2.01	2.01	2.01	2.01	2.01	2.01
x1 = 0.0987	–	3.08	3.08	3.08	3.08	3.08	3.08	3.08	3.08	3.08
x1 = 0.1449	–	3.57	3.57	3.57	3.57	3.57	3.57	3.57	3.57	3.57
x1 = 0.1859	–	3.86	3.86	3.86	3.86	3.86	3.86	3.86	3.86	3.86
x1 = 0.2493	–	3.89	3.9	3.9	3.9	3.9	3.9	3.9	3.9	3.9
x1 = 0.3029	–	3.88	3.88	3.88	3.88	3.88	3.88	3.88	3.88	3.88
x1 = 0.3845	–	3.74	3.74	3.74	3.74	3.74	3.74	3.74	3.74	3.74
x1 = 0.4985	–	3.46	3.46	3.46	3.46	3.46	3.46	3.46	3.46	3.46
x1 = 0.6954	–	2.99	2.99	2.99	2.99	2.99	2.99	2.99	3	3
x1 = 0.9013	2.633	2.633	2.63	2.63	2.63	2.63	2.63	2.63	2.63	2.63
x1 = 1	2.529	2.529	2.529	2.529	2.529	2.529	2.529	2.529	2.529	2.529

Conditions	mass density [kg/m3]
x1 = 0.0987	1082.02
x1 = 0.1859	1067.9
x1 = 0.3029	1051.93
x1 = 0.4985	1031.43
x1 = 0.6954	1016.21
x1 = 0.9013	1004.23
x1 = 1	999.525

Source: the NIST ThermoML archive (doi:10.1016/j.jct.2015.08.014)
